Type in all cases: functional
Common to all, as to conditions: read-out: ED50 (the source's name)

For one assay, the system named is XF498. Briefly: Cytotoxicity against human XF498 cells.
The subject of a further assay is SK-OV-3. Briefly: Cytotoxicity against human SKOV3 cells.
In another assay the test system is A549. Briefly: Cytotoxicity against human A549 cells.
In another assay the test system is HCT-15. The assay can be described thus: Cytotoxicity against human HCT15 cells.
For another assay, the system named is SK-MEL-2. Briefly: Cytotoxicity against human SK-MEL-2 cells.

Values after ≈ are worked out from the molar mass of the structure shown.

The values that follow come from ChEMBL document CHEMBL1150681, “New acetylenic acids from the marine sponge Stelletta species” (2003).

Take `COc1cccc2c1C(=O)c1c(O)c3c(c(O)c1C2=O)C[C@@](O)(C(=O)CO)C[C@@H]3O[C@H]1C[C@H](N)[C@H](O)[C@H](C)O1` [DOXORUBICIN]: the EC50 stood at 0.15 µg/mL (≈ 0.276 µM) with XF498; 0.15 µg/mL (≈ 0.276 µM) in the assay with SK-OV-3; 0.03 µg/mL (≈ 0.0552 µM) with A549; 0.07 µg/mL (≈ 0.129 µM) with HCT-15; 0.03 µg/mL (≈ 0.0552 µM) with SK-MEL-2.
